The record followed here is patent US20250179103A1, “6-OXODECAHYDROPYRROLO[1,2-A][1,5]DIAZOCINE AND 6-OXODECAHYDRO-4H-PYRROLO[2,1-D][1,5]THIAZOCINE DERIVATIVES AS STAT3 AND STAT6 MODULATORS FOR THE TREATMENT OF CANCER AND INFLAMMATORY CONDITIONS” (Recludix Pharma, Inc., priority 2022, published 2025).

Assay [1] relates to pY641-STAT6 in Peripheral Blood Mononuclear Cells (PBMC). Description: MSD-pSTAT-PBMC Assay (pSTAT6, IL-4 stimulated). The assay is classed as cell-based, Human. The following applies: compound 3 hrs, then 1 ng/mL IL-4 for 10 min. The gist of the method: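 Phospho-STAT readout used MSD electrochemiluminescence with total STAT3 or STAT6 capture in lysates of cryopreserved human PBMCs. Cells had 3 h compound exposure before a 10 min cytokine pulse: IL-6 10 ng/mL for pSTAT3, IL-4 1 ng/mL for pSTAT6. IC50 came from background-subtracted, DMSO-normalised signal, with categories A≤100 nM up to D>3 μM.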

The subject of assay [2] is pY705-STAT3 in Peripheral Blood Mononuclear Cells (PBMC). Description: MSD-pSTAT-PBMC Assay (pSTAT3, IL-6 stimulated). The assay is classed as cell-based, Human. The following applies: compound 3 hrs, then 10 ng/mL IL-6 for 10 min. The source says: Cryopreserved Peripheral Blood Mononuclear Cells (PBMC) are from AllCells. Recombinant Human IL-4 and IL-6 are from Peprotech. Mouse monoclonal anti-STAT3 antibody, rabbit monoclonal anti-pY705-STAT3 antibody, rabbit monoclonal Anti-pY641-STAT6 antibody, and lysis buffer are from Cell Signaling Technology (CST). Mouse monoclonal anti-STAT6 antibody is from BioLegend. Assay plates, blocker, and anti-rabbit secondary antibody are from Meso Scale Discovery (MSD).
Cryopreserved PBMCs were thawed out and allowed to recover overnight in IMDM+10% heat-inactivated FBS prior to plating 50,000 (STAT3) or 25,000 (STAT6) cells per well in 96-well U-bottom tissue culture plates. Cells were treated with compound for 3 hrs, then stimulated with 10 ng/mL IL-6 (STAT3) or 1 ng/mL IL-4 (STAT6) for 10 min. Cells were then spun down and washed with ice-cold PBS prior to lysing the cell pellet with 1× lysis buffer (CST) with 1×HALT protease and phosphatase inhibitor cocktail (Thermo). Lysates were transferred to and incubated overnight at 4° C. with shaking in QuickPlex 96-well high bind assay plates (MSD) pre-coated overnight with 30 μL per well of 0.6 μg/mL mouse monoclonal anti-STAT3 antibody (STAT3) or 2 μg/mL mouse monoclonal anti-STAT6 antibody (STAT6) in 1×PBS, and pre-blocked for 1 hour with 3% Blocker-A (MSD). Captured protein in the assay plates were then washed and probed with 25 μL per well of 0.25 μg/ml rabbit monoclonal anti-pY705-STAT3 antibody (STAT3) or […] rabbit monoclonal Anti-pY641-STAT6 antibody (STAT6) in 1% Blocker-A for 1 hour at room temperature with shaking, then washed and probed with 25 ul per well of 1 ug/ml Sulfo-TAG Labeled Goat Anti-Rabbit Antibody (MSD) in 1% Blocker-A for 1 hour at room temperature with shaking. Assay plates were then washed and 150 μL of 1× Read Buffer-T (MSD) was added to each well prior to reading on an SQ120 MSD Plate Reader. Assay signal from each sample was subtracted by the signal from unstimulated control wells and normalized to DMSO control wells. IC50 values were calculated using Graph Pad Prism Dose-Response Nonlinear Regression with variable slope. For both pSTAT3 and pSTAT6 A=≤100 nM; B=>100-1000 nM; C=>1000-3000 nM; and D=>3 μM.

As for `CCCC(=O)SCCOP(=O)(OCCSC(=O)CCC)C(F)(F)c1ccc2ccc(C(=O)N[C@H]3CN(C(C)=O)CC[C@H]4CC[C@@H](C(=O)N5C[C@H](c6cc[nH]c(=O)c6)[C@@H](C#N)C5)N4C3=O)cc2c1` (single isomer, unassigned) [Compound 304, S,S′-(((((7-(((5S,8S, 10aR)-3-acetyl-8-((3R,4S or 3S,4R)-3-cyano-4-(2-oxo-1,2-dihydro-pyridin-4-yl)pyrrolidine-1-carbonyl)-6-oxodecahydro-pyrrolo[1,2-a][1,5]diazocin-5-yl)carbamoyl)naphthalen-2-yl)difluoro-methyl)phos-phoryl)bis(oxy))bis(ethane-2,1-diyl))di-butanethioate], the IC50 in assay [1] (Homo sapiens) is 100 to 1000 nM; in assay [2] (Homo sapiens) it was above 3000 nM.
The corresponding values for `CC(=O)N1CC[C@H]2CC[C@@H](C(=O)N3C[C@@H](C#N)[C@H](c4cc[nH]c(=O)c4)C3)N2C(=O)[C@@H](NC(=O)c2ccc3ccc(C(F)(F)P(=O)(OCCSC(=O)CC(C)C)OCCSC(=O)CC(C)C)cc3c2)C1` (single isomer, unassigned) [Compound 306, S,S′-(((((7-(((5S,8S, 10aR)-3-acetyl-8-((3S,4R or 3r,4S)-3-cyano-4-(2-oxo-1,2-dihydro-pyridin-4-yl)pyrrolidine-1-carbonyl)-6-oxodecahydro-pyrrolo[1,2-a][1,5]diazocin-5-yl)carbamoyl)naphthalen-2-yl)difluoro-methyl)phos-phoryl)bis(oxy))bis(ethane-2,1-diyl)) bis(3-methylbutane-thioate)] are 1000 to 3000 nM and above 3000 nM.
With `CCN1CC[C@H]2CC[C@@H](C(=O)N3C[C@@H](C#N)[C@H](c4ccccc4)C3)N2C(=O)[C@@H](NC(=O)c2cc3cc(C(F)(F)P(=O)(OCCSC(=O)C(C)(C)C)OCCSC(=O)C(C)(C)C)ccc3s2)C1` (single isomer, unassigned) [Compound 330, S,S′-(((((2-(((5S,8S,10aR)-8-((3S,4R or 3R,4S)-3-cyano-4-phenylpyrrolidine-1-carbonyl)-3-ethyl-6-oxodecahydropyrrolo[1,2-a][1,5]diazocin-5-yl)carbamoyl)benzo[b]thiophen-5-yl)difluoromethyl)phosphoryl)bis(oxy))bis(ethane-2,1-diyl)) bis(2,2-dimethylpropanethioate)], the IC50 in assay [1] (Homo sapiens) and in assay [2] (Homo sapiens) was 1000 to 3000 nM in each case.
In the case of `CCN1CC[C@H]2CC[C@@H](C(=O)N3C[C@@H](C#N)[C@H](c4ccccc4)C3)N2C(=O)[C@@H](NC(=O)c2cc3cc([C@H](F)P(=O)(OCCSC(=O)CC(C)C)OCCSC(=O)CC(C)C)ccc3s2)C1` (single isomer, unassigned) [Compound 339, S,S′-(((((R or S)-(2-(((5S,8S,10aR)-8-((3S,4R or 3R,4S)-3-cyano-4-phenylpyrrolidine-1-carbonyl)-3-ethyl-6-oxodecahydropyrrolo[1,2-a][1,5]diazocin-5-yl)carbamoyl)benzo[b]thiophen-5-yl)fluoromethyl)phosphoryl)bis(oxy))bis(ethane-2,1-diyl))bis(3-methylbutane thioate)], the results for the IC50 in assay [1] (Homo sapiens) and in assay [2] (Homo sapiens) were 100 to 1000 nM and 1000 to 3000 nM, respectively.
For `CC(C)(C)C(=O)SCCOP(=O)(OCCSC(=O)C(C)(C)C)C(F)(F)c1ccc2ccc(C(=O)N[C@H]3CN(CC(F)F)CC[C@H]4CC[C@@H](C(=O)N5C[C@@H](C#N)[C@H](c6ccccc6)C5)N4C3=O)cc2c1` (single isomer, unassigned) [Compound 342, S,S′-(((((7-(((5S,8S,10aR)-8-((3S,4R or 3R,4S)-3-cyano-4-phenylpyrrolidine-1-carbonyl)-3-(2,2-difluoroethyl)-6-oxodecahydropyrrolo[1,2-a][1,5]diazocin-5-yl)carbamoyl)naphthalen-2-yl)difluoromethyl)phosphoryl)bis(oxy))bis (ethane-2,1-diyl))bis(2,2-dimethylprop anethioate)] the same measures were 100 to 1000 nM and above 3000 nM.
Consider `CCN1CC[C@H]2CC[C@@H](C(=O)N3C[C@@H](C#N)[C@H](c4ccccc4)C3)N2C(=O)[C@@H](NC(=O)c2ccc3ccc(C(F)(F)P(=O)(OCCSC(=O)C(C)(C)C)OCCSC(=O)C(C)(C)C)cc3c2)C1` (single isomer, unassigned) [Compound 343, S,S′-(((((7-(((5S,8S,10aR)-8-((3S,4R or 3R,4S)-3-cyano-4-phenylpyrrolidine-1-carbonyl)-3-ethyl-6-oxodecahydropyrrolo[1,2-a][1,5]diazocin-5-yl)carbamoyl)naphthalen-2-yl)difluoromethyl)phosphoryl)bis(oxy))bis(ethane-2,1-diyl))bis(2,2-dimethylpropanethioate)], for which the IC50 was in the range of 100 to 1000 nM in assay [1] (Homo sapiens) and 1000 to 3000 nM in assay [2] (Homo sapiens).
Consider `CC(C)(C)C(=O)OCOP(=O)(OCOC(=O)C(C)(C)C)C(F)(F)c1ccc2ccc(C(=O)N[C@H]3CN(CC(F)F)CC[C@H]4CC[C@@H](C(=O)N5C[C@@H](C#N)[C@H](c6ccccc6)C5)N4C3=O)cc2c1` (single isomer, unassigned) [Compound 346], for which the IC50 in assay [1] (Homo sapiens) is at most 100 nM; in assay [2] (Homo sapiens), 100 to 1000 nM.
With `CC(C)(C)C(=O)OCOP(=O)(OCOC(=O)C(C)(C)C)C(F)(F)c1ccc2sc(C(=O)N[C@H]3CN(CC(F)F)CC[C@H]4CC[C@@H](C(=O)N5C[C@@H](C#N)[C@H](c6ccccc6)C5)N4C3=O)cc2c1` (single isomer, unassigned) [Compound 348, ((((2-(((5S,8S,10aR)-8-((3S,4R or 3R,4S)-3-cyano-4-phenylpyrrolidine-1-carbonyl)-3-(2,2-difluoroethyl)-6-oxodecahydropyrrolo[1,2-a][1,5]diazocin-5-yl)carbamoyl)benzo[b]thiophen-5-yl)difluoromethyl)phosphoryl)bis (oxy)) bis(methylene) bis(2,2-dimethylpropanoate)], the IC50 in assay [1] (Homo sapiens) and in assay [2] (Homo sapiens) was at most 100 nM each time.
`CC(=O)N1CCC2CCC(C(=O)N3CC(c4ccccc4)CC34CC4)N2C(=O)C(NC(=O)c2ccc3ccc(C(F)(F)P(=O)(OCCSC(=O)CC(C)C)OCCSC(=O)CC(C)C)cc3c2)C1` [Compound 1, S,S′-(((((7-(((5S,8S,10aR)-3-acetyl-6-oxo-8-(6-phenyl-4-azaspiro[2.4]heptane-4-carbonyl)decahydropyrrolo[1,2-a][1,5]diazocin-5-yl)carbamoyl)naphthalen-2-yl)difluoromethyl)phosphoryl)bis(oxy))bis(ethane-2,1-diyl)) bis(3-methylbutanethioate)]: the IC50 in assay [1] was 100 to 1000 nM; in assay [2] it was above 3000 nM.
`CNC(=O)C[C@@H](Cc1ccc(OC)cc1)NC(=O)[C@@H]1CC[C@@H]2CCN(C(=O)c3n[nH]c4ccc(C)cc34)C[C@H](NC(=O)c3ccc4ccc(C(F)(F)P(=O)(O)O)cc4c3)C(=O)N21` [Compound 239, (difluoro(7-(((5S,8S,10aR)-8-(((R)-1-(4-methoxyphenyl)-4-(methylamino)-4-oxobutan-2-yl)carbamoyl)-3-(5-methyl-1H-indazole-3-carbonyl)-6-oxodecahydropyrrolo[1,2-a][1,5]diazocin-5-yl)carbamoyl)naphthalen-2-yl)methyl)phosphonic acid]: the concentration for half-maximal inhibition (IC50) in assay [1] (Homo sapiens) and in assay [2] (Homo sapiens) was 100 to 1000 nM in each case.
Consider `CCCC(=O)SCCOP(=O)(OCCSC(=O)CCC)C(F)(F)c1ccc2sc(C(=O)N[C@H]3CN(C(C)=O)CC[C@H]4CC[C@@H](C(=O)N(C)c5ccccc5)N4C3=O)cc2c1` [Compound 280, S,S′-(((((2-(((5S,8S, 10aR)-3-acetyl-8-(methyl (phenyl)carbamoyl)-6-oxodecahydro-pyrrolo[1,2-a][1,5]diazocin-5-yl)carbamoyl)benzo[b]thiophen-5-yl)difluoro-methyl)phos-phoryl)bis (oxy))bis (ethane-2,1-diyl))di-butanethioate], for which the IC50 in assay [1] (Homo sapiens) was 100 to 1000 nM; in assay [2] (Homo sapiens), 1000 to 3000 nM.

Usually IC50 stands for the concentration needed to halve the response being measured. The low end stands for inhibition by little substance, the high end for a need for much substance.
